Data set [1] concerns Spodoptera littoralis (Egyptian Cotton Leaf Worm). Description: Activity against Spodoptera littoralis (Egyptian cotton leaf worm), cotton leaf discs. The data set is classed as in vivo. To be noted: foliar, 72 h, read-out: control (mortality, anti-feedant effect or growth inhibition). The procedure: Example B5: Activity Against Spodoptera littoralis (Egyptian Cotton Leaf Worm)
Cotton leaf discs were placed onto agar in 24-well microtiter plates and sprayed with aqueous test solutions prepared from 10,000 ppm DMSO stock solutions. After drying the leaf discs were infested with five L1 larvae. The samples were assessed for mortality, anti-feeding effect, and growth inhibition in comparison to untreated samples 3 days after infestation. Control of Spodoptera littoralis by a test sample is given when at least one of the categories mortality, anti-feedant effect, and growth inhibition is higher than the untreated sample.

Data set [2] has as its system Myzus persicae (Green Peach Aphid). Description: Activity against Myzus persicae (green peach aphid), feeding/contact activity. To be noted: 144 h. In kind it is in vivo. The protocol: Example B4: Activity Against Myzus persicae (Green Peach Aphid) Feeding/Contact Activity
Sunflower leaf discs were placed onto agar in a 24-well microtiter plate and sprayed with aqueous test solutions prepared from 10,000 ppm DMSO stock solutions. After drying, the leaf discs were infested with an aphid population of mixed ages. The samples were assessed for mortality 6 days after infestation.

Data set [3] relates to Diabrotica balteata (Corn Root Worm). Description: Activity against Diabrotica balteata (corn root worm), maize sprouts sprayed. The data set is classed as in vivo. The settings on record: 96 h, read-out: effect in at least one of the two categories (mortality or growth inhibition); for percent effect (mortality or growth inhibition) at 200 ppm: application rate 200 ppm, L2 larvae, 4 days after infestation. The procedure:
Example B1: Activity Against Diabrotica balteata (Corn Root Worm)
Maize sprouts placed onto an agar layer in 24-well microtiter plates were treated with aqueous test solutions prepared from 10,000 ppm DMSO stock solutions by spraying. After drying, the plates were infested with L2 larvae (6 to 10 per well). The samples were assessed for mortality and growth inhibition in comparison to untreated samples 4 days after infestation.

Data set [4] concerns Bemisia tabaci (Cotton White Fly). Description: Activity against Bemisia tabaci (cotton white fly), cotton leaf discs. The settings on record: foliar, 144 h, application rate 200 ppm, adult white flies, 6 days after incubation. The data set is classed as in vivo. The protocol: Example B6: Activity Against Bemisia tabaci (Cotton White Fly)
Cotton leaf discs were placed on agar in 24-well microtiter plates and sprayed with aqueous test solutions prepared from 10,000 ppm DMSO stock solutions. After drying the leaf discs were infested with adult white flies. The samples were checked for mortality 6 days after incubation.

Data set [5] relates to Plutella xylostella (Diamond Back Moth). Description: Activity against Plutella xylostella (diamond back moth), artificial diet. The data set is classed as in vivo. To be noted: 192 h, read-out: effect in at least one of the two categories (mortality or growth inhibition); for percent effect (mortality or growth inhibition) at 200 ppm: application rate 200 ppm, eggs, 8 days after infestation. The procedure: Example B3: Activity Against Plutella xylostella (Diamond Back Moth)
24-well microtiter plates with artificial diet were treated with aqueous test solutions prepared from 10,000 ppm DMSO stock solutions by pipetting. After drying, Plutella eggs were pipetted through a plastic stencil onto a gel blotting paper and the plate was closed with it. The samples were assessed for mortality and growth inhibition in comparison to untreated samples 8 days after infestation.

For data set [6], the system named is Euschistus heros (Neotropical Brown Stink Bug). The data set is described as follows: Activity against Euschistus heros (neotropical brown stink bug), soybean leaves sprayed. The settings on record: 120 h, read-out: effect in at least one of the two categories (mortality or growth inhibition); for percent effect (mortality or growth inhibition) at 200 ppm: application rate 200 ppm, N2 nymphs, 5 days after infestation. In kind it is in vivo. The procedure:
Example B2: Activity Against Euschistus heros (Neotropical Brown Stink Bug)
Soybean leaves on agar in 24-well microtiter plates were sprayed with aqueous test solutions prepared from 10,000 ppm DMSO stock solutions. After drying the leaves were infested with N2 nymphs. The samples were assessed for mortality and growth inhibition in comparison to untreated samples 5 days after infestation.

Data set [7] relates to Frankliniella occidentalis (Western Flower Thrips). The data set is described as follows: Activity against Frankliniella occidentalis (western flower thrips), sunflower leaf discs. In kind it is in vivo. The settings on record: foliar, 168 h, application rate 200 ppm, mixed ages, 7 days after infestation. The protocol: Example B7: Activity Against Frankliniella occidentalis (Western Flower Thrips)
Sunflower leaf discs were placed on agar in 24-well microtiter plates and sprayed with aqueous test solutions prepared from 10,000 DMSO stock solutions. After drying the leaf discs were infested with a Frankliniella population of mixed ages. The samples were assessed for mortality 7 days after infestation.

Where [8] appears, read: application rate 200 ppm, L1 larvae, 3 days after infestation.
[9] abbreviates: application rate 200 ppm, feeding/contact, mixed ages, 6 days after infestation, read-out: mortality.

The values below come from US20220061324A1, “PESTICIDALLY ACTIVE HETEROCYCLIC DERIVATIVES WITH SULFUR CONTAINING SUBSTITUENTS” (SYNGENTA CROP PROTECTION AG, priority 2018, published 2022).

The structures appear in SMILES notation. Where two headings read alike, the source gives them in different places.

Turning to `CCS(=N)(=O)c1cc(OC(C)(C)C#N)cnc1-c1ncc2c(OCC(F)(F)C(F)(F)F)nccn12` (stereo not drawn) [Compound P52, 2-[[5-(ethylsulfonimidoyl)-6-[8-(2,2,3,3,3-penta-fluoropropoxy)imidazo [1,5-a]pyrazin-3-yl]-3-pyridyl]oxy]-2-methyl-propanenitrile], the percent control (mortality, anti-feedant effect or growth inhibition) at 200 ppm in data set [1] (setting [8]) was not below 80%. Further, the mortality at 200 ppm in data set [2] (setting [9]) and in data set [4] was not below 80% each time. Further, the percent effect (mortality or growth inhibition) at 200 ppm in data set [3] and in data set [5] was not below 80% throughout.
Consider `CCS(=O)(=O)c1cc(Oc2ccccn2)cnc1-c1ncc2c(OCC(F)(F)C(F)(F)F)nccn12` [Compound P19, 3-[3-ethylsulfonyl-5-(2-pyridyloxy)-2-pyridyl]-8-(2,2,3,3,3-penta-fluoropropoxy)imidazo [1,5-a]pyrazine], for which the percent control (mortality, anti-feedant effect or growth inhibition) at 200 ppm in data set [1] (setting [8]) was not below 80%. In data set [2] (setting [9]), the mortality at 200 ppm is not below 80%. In addition, the percent effect (mortality or growth inhibition) at 200 ppm in data set [6], in data set [3] and in data set [5] was not below 80% each time.
As for `CCS(=O)(=O)c1cc(C2CC2)cnc1-c1ncc2c(OCC(F)(F)C(F)(F)F)nccn12` [Compound P21, 3-(5-cyclopropyl-3-ethylsulfonyl-2-pyridyl)-8-(2,2,3,3,3-penta-fluoropropoxy)imidazo [1,5-a]pyrazine], the percent control (mortality, anti-feedant effect or growth inhibition) at 200 ppm in data set [1] (setting [8]) was not below 80%. The mortality at 200 ppm in data set [2] (setting [9]) is not below 80%. In addition, the percent effect (mortality or growth inhibition) at 200 ppm in data set [6], in data set [3] and in data set [5] was not below 80% each time.
Regarding `CCS(=O)(=O)c1ccc(-c2ncccn2)nc1-c1ncc2c(OCC(F)(F)C(F)(F)F)nccn12` [Compound P25, 3-(3-ethylsulfonyl-6-pyrimidin-2-yl-2-pyridyl)-8-(2,2,3,3,3-penta-fluoropropoxy)imidazo [1,5-a]pyrazine], the percent control (mortality, anti-feedant effect or growth inhibition) at 200 ppm in data set [1] (setting [8]) was not below 80%. The mortality at 200 ppm in data set [2] (setting [9]) was not below 80%. Also, the percent effect (mortality or growth inhibition) at 200 ppm in data set [6], in data set [3] and in data set [5] was not below 80% in each case.
`CCSc1cc(N=S(C)(C)=O)cnc1-c1ncc2c(OCC(F)(F)C(F)(F)F)nccn12` [Compound P17, [5-ethylsulfanyl-6-[8-(2,2,3,3,3-penta-fluoropropoxy)imidazo [1,5-a]pyrazin-3-yl]-3-pyridyl]imino-dimethyl-oxo-λ^6-sulfane] displayed a mortality at 200 ppm in data set [7] not below 80%. In data set [1] (setting [8]), the percent control (mortality, anti-feedant effect or growth inhibition) at 200 ppm was not below 80%. In addition, the percent effect (mortality or growth inhibition) at 200 ppm in data set [6], in data set [3] and in data set [5] was not below 80% throughout.
`CCS(=O)(=O)c1cccnc1-c1ncc2c(OCC(F)(F)C(F)(F)F)nccn12` [Compound P8, 3-(3-ethylsulfonyl-2-pyridyl)-8-(2,2,3,3,3-pentafluoropropoxy)imi-dazo[1,5-a]pyrazine]: the percent control (mortality, anti-feedant effect or growth inhibition) at 200 ppm in data set [1] is not below 80%. For the same compound, in data set [2], the mortality at 200 ppm was not below 80%. In addition, the percent control (mortality or growth inhibition) at 200 ppm in data set [6], in data set [3] and in data set [5] was not below 80% in each case.
Take `CCS(=O)(=O)c1cc(OC(C)(C)C#N)cnc1-c1ncc2c(OCC(F)(F)C(F)(F)F)nccn12` [Compound P51, 2-[[5-ethylsulfonyl-6-[8-(2,2,3,3,3-pentafluoropropoxy)imidazo [1,5-a]pyrazin-3-yl]-3-pyridyl]oxy]-2-methyl-propanenitrile]: the mortality at 200 ppm in data set [7], in data set [2] (setting [9]) and in data set [4] was not below 80% throughout. For the same compound, in data set [1] (setting [8]), the percent control (mortality, anti-feedant effect or growth inhibition) at 200 ppm is not below 80%. Also, the percent effect (mortality or growth inhibition) at 200 ppm in data set [6], in data set [3] and in data set [5] was not below 80% in each case.
`CCS(=O)(=O)c1ccc(N(C)C(C)=O)nc1-c1ncc2c(OCC(F)(F)C(F)(F)F)nccn12` [Compound P11, N-[5-ethylsulfonyl-6-[8-(2,2,3,3,3-penta-fluoropropoxy)imidazo [1,5-a]pyrazin-3-yl]-2-pyridyl]-N-methyl-acetamide]: the mortality at 200 ppm in data set [7] and in data set [2] (setting [9]) was not below 80% each time. For the same compound, in data set [1] (setting [8]), the percent control (mortality, anti-feedant effect or growth inhibition) at 200 ppm is not below 80%. In addition, the percent effect (mortality or growth inhibition) at 200 ppm in data set [6], in data set [3] and in data set [5] was not below 80% in each case.
Take `CCS(=O)(=O)c1ccc(-n2cncn2)nc1-c1ncc2c(OCC(F)(F)C(F)(F)F)nccn12` [Compound P12, 3-[3-ethylsulfonyl-6-(1,2,4-triazol-1-yl)-2-pyridyl]-8-(2,2,3,3,3-penta-fluoropropoxy)imidazo [1,5-a]pyrazine]: the percent control (mortality, anti-feedant effect or growth inhibition) at 200 ppm in data set [1] (setting [8]) was not below 80%. In addition, the mortality at 200 ppm in data set [2] (setting [9]) and in data set [4] was not below 80% in each case. Further, the percent effect (mortality or growth inhibition) at 200 ppm in data set [6], in data set [3] and in data set [5] was not below 80% in each case.
In the case of `CCS(=O)(=O)c1cc(N=S(C)(C)=O)cnc1-c1ncc2c(OCC(F)(F)C(F)(F)F)nccn12` [Compound P18, [5-ethylsulfonyl-6-[8-(2,2,3,3,3-penta-fluoropropoxy)imidazo [1,5-a]pyrazin-3-yl]-3-pyridyl]imino-dimethyl-oxo-λ^6-sulfane], the mortality at 200 ppm in data set [7] and in data set [2] (setting [9]) was not below 80% in each case. Besides, the percent control (mortality, anti-feedant effect or growth inhibition) at 200 ppm in data set [1] (setting [8]) is not below 80%. For the same compound, the percent effect (mortality or growth inhibition) at 200 ppm in data set [6], in data set [3] and in data set [5] was not below 80% each time.
On to `CCS(=O)(=O)c1ccc(NC)nc1-c1ncc2c(OCC(F)(F)C(F)(F)F)nccn12` [Compound P10, 5-ethylsulfonyl-N-methyl-6-[8-(2,2,3,3,3-penta-fluoropropoxy)imidazo [1,5-a]pyrazin-3-yl]pyri-din-2-amine], for which, in data set [1] (setting [8]), the percent control (mortality, anti-feedant effect or growth inhibition) at 200 ppm was not below 80%. For the same compound, in data set [2] (setting [9]), the mortality at 200 ppm was not below 80%. Moreover, the percent effect (mortality or growth inhibition) at 200 ppm in data set [6], in data set [3] and in data set [5] was not below 80% each time.
Consider `CCS(=O)(=O)c1cc(C2(C#N)CC2)cnc1-c1ncc2c(OCC(F)(F)C(F)(F)F)nccn12` [Compound P15, 1-[5-ethylsulfonyl-6-[8-(2,2,3,3,3-penta-fluoropropoxy)imidazo [1,5-a]pyrazin-3-yl]-3-pyridyl]cyclopropane-carbonitrile], for which the percent control (mortality, anti-feedant effect or growth inhibition) at 200 ppm in data set [1] (setting [8]) is not below 80%. For the same compound, the mortality at 200 ppm in data set [2] (setting [9]) was not below 80%. Further, the percent effect (mortality or growth inhibition) at 200 ppm in data set [6], in data set [3] and in data set [5] was not below 80% each time.
In turn, `CCS(=O)(=O)c1ccc(Cl)nc1-c1ncc2c(OCC(F)(F)C(F)(F)F)nccn12` had a melting point of 140 to 143 °C.

One may read the mortality as the percentage killed. As a reminder, the melting point is the temperature of the solid-liquid transition.
